Consider 25 compounds from patent US8426449B2, “Aminoalkylphenyl antagonists of prostaglandin D2 receptors” (Panmira Pharmaceuticals, LLC, priority 2008, dated 2013).

Usually IC50 stands for the concentration that inhibits the measured activity by half.

In this experiment the target is T1, human DP2 receptor (Homo sapiens, UniProt Q9Y5Y4).
T1 construct: expressed in transfected cells
T1 sequence (Q9Y5Y4 1-395): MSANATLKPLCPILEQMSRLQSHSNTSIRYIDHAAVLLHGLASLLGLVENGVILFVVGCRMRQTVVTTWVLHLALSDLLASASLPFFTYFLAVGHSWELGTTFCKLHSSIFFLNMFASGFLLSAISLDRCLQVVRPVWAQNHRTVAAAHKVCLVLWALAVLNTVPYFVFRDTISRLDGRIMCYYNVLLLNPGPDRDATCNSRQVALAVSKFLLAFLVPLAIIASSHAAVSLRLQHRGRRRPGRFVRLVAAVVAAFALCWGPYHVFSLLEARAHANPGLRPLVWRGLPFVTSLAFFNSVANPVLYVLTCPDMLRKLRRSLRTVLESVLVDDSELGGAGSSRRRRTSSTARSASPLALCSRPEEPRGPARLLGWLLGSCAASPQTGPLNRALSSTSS
In words: DP2/CRTH2 radioligand binding assay using [3H]PGD2. Conditions: hDP2 (CRTH2) binding assay, membranes of HEK293 cells expressing recombinant human DP2. The method, then: The ability of a compound to bind to the human DP2 receptor is assessed via a radioligand binding assay using [^3H]PGD2. HEK293 cells stably expressing recombinant human DP2 are resuspended in 10 mM Hepes, 7.4 containing 1 mM DTT, lysed and centrifuged at 75,000×g to pellet the membranes. The membranes are resuspended in 10 mM Hepes, 7.4 containing 1 mM DTT and 10% glycerol to approximately 5 mg protein/ml. Membranes (2-10 μg protein/well) are incubated in 96-well plates with 1 nM [^3H]PGD2 and test compound in Assay Buffer (50 mM Hepes, 10 mM MnCl2, 1 mM EDTA, plus or minus 0.2% human serum albumin, pH 7.4) for 60 minutes at room temperature. The reactions are terminated by rapid filtration through Whatman GF/C glass fibre filter plates. The filter plates were pre-soaked in 0.33% polyethylenimine for 30 minutes at room temperature then washed in Wash Buffer (50 mM Hepes, 0.5 M NaCl pH 7.4) prior to harvesting. After harvesting, the filter plates are washed 3 times with 1 ml cold Wash Buffer then dried. Scintillant is then added to the plates and the radioactivity retained on the filters is determined on a Packard TopCount (Perkin Elmer). Specific binding is determined as total radioactive binding minus non-specific binding in the presence of 10 μM PGD2. IC50s were determined using GraphPad prism analysis of drug titration curves.
Turning to `O=C(O)Cc1cccc(Oc2ccc(Br)cc2CN(C(=O)OCc2ccccc2)C2CCc3ccccc32)c1` (stereo in doubt) [Compound 1-6, (3-{2-[((R)-Benzyloxycarbonyl-indan-1-yl-amino)-methyl]-4-bromo-phenoxy}-phenyl)-acetic acid], the IC50 is < 300 nM.
For the compound `CC(=O)N(Cc1cc(C(F)(F)F)ccc1Oc1cccc(CC(=O)O)c1)C1CCc2ccccc21` (stereo in doubt) [Compound 1-13, (3-{2-[((R)-Acetyl-indan-1-yl-amino)-methyl]-4-trifluoromethyl-phenoxy}-phenyl)-acetic acid], the IC50 was < 300 nM.
Consider `CC(=O)N(Cc1cc(C(F)(F)F)ccc1Oc1cccc(CC(=O)O)c1)C1CCc2ccccc21` (stereo in doubt) [Compound 1-14, (3-{2-[((S)-Acetyl-indan-1-yl-amino)-methyl]-4-trifluoromethyl-phenoxy}-phenyl)-acetic acid], for which the IC50 was < 300 nM.
`COC(=O)N(Cc1cc(C(F)(F)F)ccc1Oc1cccc(CC(=O)O)c1)C1CCc2ccccc21` (stereo in doubt) [Compound 1-19, (3-{2-[((R)-Indan-1-yl-methoxycarbonyl-amino)-methyl]-4-trifluoromethyl-phenoxy}-phenyl)-acetic acid]: the IC50 was < 300 nM.
In the case of `CC(=O)N(CCc1ccccc1)Cc1cc(Br)ccc1Oc1cccc(CC(=O)O)c1` [Compound 1-1, (3-{2-[(Acetyl-phenethyl-amino)-methyl]-4-bromo-phenoxy}-phenyl)-acetic acid] it was < 300 nM; in that of `CC(=O)N(Cc1cc(Br)ccc1Oc1cccc(CC(=O)O)c1)C(C)(C)Cc1ccc(F)cc1` [Compound 1-2, {3-[2-({Acetyl-[2-(4-fluoro-phenyl)-1,1-dimethyl-ethyl]-amino}-methyl)-4-bromo-phenoxy]-phenyl}-acetic acid], < 300 nM; in that of `COC(=O)N(Cc1ccccc1)Cc1cc(Br)ccc1Oc1cccc(CC(=O)O)c1` [Compound 1-3, (3-{2-[(Benzyl-methoxycarbonyl-amino)-methyl]-4-bromo-phenoxy}-phenyl)-acetic acid], < 300 nM.
Regarding `COC(=O)N(CCc1ccccc1)Cc1cc(Br)ccc1Oc1cccc(CC(=O)O)c1` [Compound 1-4, (3-{4-Bromo-2-[(methoxycarbonyl-phenethyl-amino)-methyl]-phenoxy}-phenyl)-acetic acid], the IC50 was < 300 nM.
As to `COC(=O)N(Cc1cc(Br)ccc1Oc1cccc(CC(=O)O)c1)[C@@H](C)Cc1ccccc1` [Compound 1-5, [3-(4-Bromo-2-{[methoxycarbonyl-((S)-1-methyl-2-phenyl-ethyl)-amino]-methyl}-phenoxy)-phenyl]-acetic acid], the IC50 was < 300 nM.
In the case of `COc1ccc(CC(=O)O)cc1Oc1ccc(Br)cc1CN[C@H]1c2ccccc2C[C@H]1O` [Compound 1-7, (3-{4-Bromo-2-[((1S,2R)-2-hydroxy-indan-1-ylamino)-methyl]-phenoxy}-4-methoxy-phenyl)-acetic acid], the IC50 is > 1000 nM.
Consider `CCN(Cc1cc(Br)ccc1Oc1cc(CC(=O)O)ccc1OC)C(C)=O` [Compound 1-8, (3-{2-[(Acetyl-ethyl-amino)-methyl]-4-bromo-phenoxy}-4-methoxy-phenyl)-acetic acid], for which the IC50 was < 300 nM.
`COc1ccc(CC(=O)O)cc1Oc1ccc(Br)cc1CN(Cc1ccccc1)C(C)=O` [Compound 1-9, (3-{2-[(Acetyl-benzyl-amino)-methyl]-4-bromo-phenoxy}-4-methoxy-phenyl)-acetic acid]: the IC50 is < 300 nM.
In the case of `CCN(Cc1cc(Br)ccc1Oc1cc(CC(=O)O)ccc1OC)C(=O)OC` [Compound 1-10, (3-{4-Bromo-2-[(ethyl-methoxycarbonyl-amino)-methyl]-phenoxy}-4-methoxy-phenyl)-acetic acid] it was < 300 nM.
In the case of `COC(=O)N(Cc1ccccc1)Cc1cc(Br)ccc1Oc1cc(CC(=O)O)ccc1OC` [Compound 1-11, (3-{2-[(Benzyl-methoxycarbonyl-amino)-methyl]-4-bromo-phenoxy}-4-methoxy-phenyl)-acetic acid], the IC50 is < 300 nM.
Take `C[C@H](NCc1cc(C(F)(F)F)ccc1Oc1cccc(CC(=O)O)c1)[C@H](O)c1ccccc1` [Compound 1-12, (3-{2-[((1S,2R)-2-Hydroxy-1-methyl-2-phenyl-ethylamino)-methyl]-4-trifluoromethyl-phenoxy}-phenyl)-acetic acid]: the IC50 was > 1000 nM.
Take `O=C(O)Cc1cccc(Oc2ccc(C(F)(F)F)cc2CNC(=O)c2ccc(Cl)cc2)c1` [Compound 1-15, (3-{2-[(4-Chloro-benzoylamino)-methyl]-4-trifluoromethyl-phenoxy}-phenyl)-acetic acid]: the IC50 is > 300 nM.
`CN(Cc1cc(C(F)(F)F)ccc1Oc1cccc(CC(=O)O)c1)C(=O)Cc1ccccc1` [Compound 1-16, (3-{2-[(Methyl-phenylacetyl-amino)-methyl]-4-trifluoromethyl-phenoxy}-phenyl)-acetic acid]: the IC50 is < 300 nM.
With `CCN(Cc1cc(C(F)(F)F)ccc1Oc1cccc(CC(=O)O)c1)C(=O)c1ccccc1` [Compound 1-17, (3-{2-[(Benzoyl-ethyl-amino)-methyl]-4-trifluoromethyl-phenoxy}-phenyl)-acetic acid], the IC50 was < 300 nM.
`CCN(Cc1cc(C(F)(F)F)ccc1Oc1cccc(CC(=O)O)c1)C(=O)Cc1ccccc1` [Compound 1-18, (3-{2-[(Ethyl-phenylacetyl-amino)-methyl]-4-trifluoromethyl-phenoxy}-phenyl)-acetic acid]: the IC50 is > 300 nM.
With `COC(=O)N(Cc1cc(C(F)(F)F)ccc1Oc1cccc(CC(=O)O)c1)C1Cc2ccccc2C1` [Compound 1-20, (3-{2-[(Indan-2-yl-methoxycarbonyl-amino)-methyl]-4-trifluoromethyl-phenoxy}-phenyl)-acetic acid], the IC50 was < 300 nM.
Consider `CN(Cc1cc(C(F)(F)F)ccc1Oc1cccc(CC(=O)O)c1)C(=O)OCc1ccccc1` [Compound 1-21, (3-{2-[(Benzyloxycarbonyl-methyl-amino)-methyl]-4-trifluoromethyl-phenoxy}-phenyl)-acetic acid], for which the IC50 is < 300 nM.
As for `O=C(O)Cc1cccc(Oc2ccc(C(F)(F)F)cc2CNS(=O)(=O)c2ccc(Cl)cc2)c1` [Compound 1-22, (3-{2-[(4-Chloro-benzenesulfonylamino)-methyl]-4-trifluoromethyl-phenoxy}-phenyl)-acetic acid], the IC50 was < 300 nM.
For `CN(Cc1cc(C(F)(F)F)ccc1Oc1cccc(CC(=O)O)c1)S(=O)(=O)c1ccc(Cl)cc1` [Compound 1-23, [3-(2-{[(4-Chloro-benzenesulfonyl)-methyl-amino]-methyl}-4-trifluoromethyl-phenoxy)-phenyl]-acetic acid], the IC50 is < 300 nM.
With `CN(Cc1cc(C(F)(F)F)ccc1Oc1cccc(CC(=O)O)c1)S(=O)(=O)c1ccccc1C(F)(F)F` [Compound 1-24, [3-(2-{[Methyl-(2-trifluoromethyl-benzenesulfonyl)-amino]-methyl}-4-trifluoromethyl-phenoxy)-phenyl]-acetic acid], the IC50 was > 300 nM.
As for `COc1ccc(S(=O)(=O)N(C)Cc2cc(C(F)(F)F)ccc2Oc2cccc(CC(=O)O)c2)cc1` [Compound 1-25, [3-(2-{[(4-Methoxy-benzenesulfonyl)-methyl-amino]-methyl}-4-trifluoromethyl-phenoxy)-phenyl]-acetic acid], the IC50 is > 300 nM.
